Experimental data published in US12472231B2 (priority 2020, dated 2025).
Where a SMILES comes first, the peptide text is derived from it.

System: A(H1N1)pdm09 virus
Assay: microbe, parasite or virus in culture
Type: cell-based

Structure (SMILES)	emergence of drug-resistant virus after serial passages in presence of the agent	inhibition of P30 virus replication	inhibition of P40 virus replication	inhibition of P10 virus replication (2000 nM)	inhibition of P15 virus replication (8000 nM)	IC50 (Influenza A virus, H1N1, MDCK, 24 h, read-out: IC50 against parent A(H1N1)pdm09 virus (P0))
CC[C@H](C)[C@H](NC(=O)[C@H](C)NC(=O)CNC(=O)[C@@H](N)CC(N)=O)C(=O)N[C@@H](CS)C(=O)N[C@@H](Cc1c[nH]c2ccccc12)C(=O)NCC(=O)N1CCC[C@H]1C(=O)N[C@@H](CS)C(=O)N1CCC[C@H]1C(=O)N[C@H](C(=O)N[C@@H](C)C(=O)N[C@@H](Cc1ccccc1)C(=O)N[C@@H](CCCNC(=N)N)C(=O)N[C@@H](CCC(N)=O)C(=O)N[C@H](C(=O)NCC(=O)N[C@@H](CC(N)=O)C(=O)N[C@@H](CS)C(=O)NCC(=O)N[C@@H](CCCNC(=N)N)C(=O)N[C@@H](Cc1ccccc1)C(=O)N[C@@H](CCCNC(=N)N)C(=O)N[C@H](C(=O)N[C@@H](CCCNC(=N)N)C(=O)N[C@@H](CS)C(=O)N[C@@H](CS)C(=O)N[C@@H](CCCNC(=N)N)C(=O)N[C@H](C(=O)N[C@@H](CCCNC(=N)N)C(=O)O)[C@@H](C)CC)C(C)C)[C@@H](C)CC)[C@@H](C)O [P9R] (H-NGAICWGPCPTAFRQIGNCGRFRVRCCRIR-OH)	No obvious drug-resistant virus	could efficiently inhibit	could efficiently inhibit			
